Data on 1 compound can be found in BindingDB's records for doi:10.1021/jm040160b (Research Triangle Institute, 2005).

The structures appear in SMILES notation.

The assay addresses Neuronal acetylcholine receptor subunit alpha-4/beta-2 (Rattus norvegicus, UniProt P09483+P12390). Description: Inhibition of [3H]epibatidine binding to Nicotinic acetylcholine receptor alpha4-beta2 in rat cerebral cortex.

Neuronal acetylcholine receptor subunit alpha-4/beta-2, sequence (P09483 whole entry): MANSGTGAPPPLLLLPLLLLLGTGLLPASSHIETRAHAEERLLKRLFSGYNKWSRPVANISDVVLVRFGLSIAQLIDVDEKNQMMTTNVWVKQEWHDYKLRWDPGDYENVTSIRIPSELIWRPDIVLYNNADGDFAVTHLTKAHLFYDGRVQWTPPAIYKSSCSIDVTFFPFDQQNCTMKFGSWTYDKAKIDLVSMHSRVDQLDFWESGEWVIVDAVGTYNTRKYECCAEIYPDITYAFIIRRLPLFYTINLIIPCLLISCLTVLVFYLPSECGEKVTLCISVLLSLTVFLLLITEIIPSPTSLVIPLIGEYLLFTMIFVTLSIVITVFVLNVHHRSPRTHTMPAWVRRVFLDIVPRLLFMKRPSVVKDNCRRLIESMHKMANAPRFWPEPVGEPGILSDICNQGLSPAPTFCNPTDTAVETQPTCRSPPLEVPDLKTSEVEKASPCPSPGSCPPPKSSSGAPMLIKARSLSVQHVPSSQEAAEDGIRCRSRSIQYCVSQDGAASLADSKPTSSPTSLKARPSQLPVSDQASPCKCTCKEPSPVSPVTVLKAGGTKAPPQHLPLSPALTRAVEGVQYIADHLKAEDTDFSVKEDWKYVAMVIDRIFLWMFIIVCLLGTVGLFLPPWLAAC
Neuronal acetylcholine receptor subunit alpha-4/beta-2, sequence (P12390 whole entry): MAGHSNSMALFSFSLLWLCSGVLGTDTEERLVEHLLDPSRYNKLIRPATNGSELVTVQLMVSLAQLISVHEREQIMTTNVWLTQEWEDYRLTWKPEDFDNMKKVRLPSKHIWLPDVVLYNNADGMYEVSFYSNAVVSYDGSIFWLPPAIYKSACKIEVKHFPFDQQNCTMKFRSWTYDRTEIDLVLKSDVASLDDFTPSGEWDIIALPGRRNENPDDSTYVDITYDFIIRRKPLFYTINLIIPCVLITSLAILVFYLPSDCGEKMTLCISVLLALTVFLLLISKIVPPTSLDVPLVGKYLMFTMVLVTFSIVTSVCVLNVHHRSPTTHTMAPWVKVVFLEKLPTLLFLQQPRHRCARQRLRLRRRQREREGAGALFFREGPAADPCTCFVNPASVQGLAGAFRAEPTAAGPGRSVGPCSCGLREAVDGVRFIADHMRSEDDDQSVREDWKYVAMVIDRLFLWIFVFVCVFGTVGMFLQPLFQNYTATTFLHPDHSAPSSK

The Ki is a dissociation constant, usually derived from enzyme kinetics or from competition with a known ligand. For the compound `Clc1cncc(C2CC3CCC2N3)c1` (stereo unspecified) [2-(5-Chloro-pyridin-3-yl)-7-aza-bicyclo[2.2.1]heptane], the inhibition constant (Ki) was found to be 0.06 nM.
